# From paper PMC5708646, “Single-molecule study of full-length NaChBac by planar lipid bilayer recording” (PLoS ONE, 2017)
# Target: T1, NaChBac (Halalkalibacterium halodurans, UniProt Q9KCR8)
# T1 construct: gene BH1501
# T1 sequence (Q9KCR8 1-274): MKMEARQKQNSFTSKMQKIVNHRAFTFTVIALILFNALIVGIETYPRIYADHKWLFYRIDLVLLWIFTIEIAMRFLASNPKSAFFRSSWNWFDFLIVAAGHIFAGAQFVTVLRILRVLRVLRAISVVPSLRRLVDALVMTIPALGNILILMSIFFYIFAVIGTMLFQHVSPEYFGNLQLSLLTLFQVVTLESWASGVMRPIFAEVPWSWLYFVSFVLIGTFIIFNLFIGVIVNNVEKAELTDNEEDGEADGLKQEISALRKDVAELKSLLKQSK
# Assay: planar lipid bilayer current recording, reconstituted purified channel
# Format: biochemical
# Details: block from the intracellular side, reversible on washout; concentration not printed for this test; step from -120 to +60 mV; POPE/POPG bilayer; pH 7.4
compound,measurement,value
CC[N+](CC)(CC)CC(=O)Nc1c(C)cccc1C [lidocaine N-ethyl bromide],"planar lipid bilayer current recording, reconstituted purified channel",It was observed that the current completely dimished (red trace of Fig 3C)
